Measurements: patent US20250387438A1, “USE OF […] SP. OR COMPOSITION COMPRISING SAME IN PREVENTION OR TREATMENT OF TUMORS, AND DRUG COMPRISING SAME” (Moon (Guangzhou) Biotech Co., Ltd., priority 2022, published 2025)

What was measured:
[1] = test system: Christensenella sp. MNH04863; assay: Antibiotic susceptibility testing by disk diffusion method; assay type: cell-based; details: for Inhibition Zone Diameter: against Christensenella sp. MNH04863
Text: The disk diffusion method was used to conduct the antibiotic susceptibility testing of Christensenella sp. MNH04863. Christensenella sp.

[2] = test system: KPC mouse pancreatic cancer cells; assay: Pancreatic cancer mouse homologous tumor model, combination with gemcitabine
[3] = test system: KPC mouse pancreatic cancer cells; details: in vivo

Compound	Susceptibility of Christensenella sp. MNH04863 to the antibiotic [1]	Inhibition Zone Diameter [1] [mm]	further results
O=C(N[C@H](CO)[C@H](O)c1ccc([N+](=O)[O-])cc1)C(Cl)Cl [Chloramphenicol (C), Chloramphenicol]	sensitive	38.88	–
Gentamycin [Gentamycin (GEN)]	resistance	0	–
CO/N=C(\C(=O)N[C@@H]1C(=O)N2C(C(=O)O)=C(CSc3nc(=O)c(=O)[nH]n3C)CS[C@H]12)c1csc(N)n1 [Ceftriaxone (CTR), Ceftriaxone]	sensitive	37.32	–
O=C(O)c1cn(C2CC2)c2cc(N3CCNCC3)c(F)cc2c1=O [Ciprofloxacin (CIP), Ciprofloxacin]	resistance	0	–
CCC[C@@H]1C[C@@H](C(=O)N[C@@H]([C@H]2O[C@H](SC)[C@H](O)[C@@H](O)[C@H]2O)[C@@H](C)O)N(C)C1 [Lincomycin (MY), Lincomycin]	sensitive	29.86	–
CC1(C)S[C@@H]2[C@H](NC(=O)[C@H](N)c3ccccc3)C(=O)N2[C@H]1C(=O)O [Ampicillin (AMP), Ampicillin]	resistance	0	–
CC[C@H]1OC(=O)[C@H](C)[C@@H](O[C@H]2C[C@@](C)(OC)[C@@H](O)[C@H](C)O2)[C@H](C)[C@@H](O[C@@H]2O[C@H](C)C[C@H](N(C)C)[C@H]2O)[C@](C)(O)C[C@@H](C)C(=O)[C@H](C)[C@@H](O)[C@]1(C)O [Erythromycin (E), Erythromycin]	sensitive	16.82	–
Compound Sulfamethoxazole [Compound Sulfamethoxazole (SXT)]	resistance	0	–
Nc1ccn([C@@H]2O[C@H](CO)[C@@H](O)C2(F)F)c(=O)n1 [Gemcitabine]	–	–	Average Dissected Tumor Weight ([2]; experimental endpoint): 0.68 g; Experimental Endpoint TGI ([2]; vs control): 40.0%; Number of Euthanized mice ([3]; C57BL/6J): 2; Average Weight Before Dissection [3]: 21.13 g
CN(C)[C@@H]1C(O)=C(C(N)=O)C(=O)[C@@]2(O)C(O)=C3C(=O)c4c(O)cccc4[C@@](C)(O)[C@H]3C[C@@H]12 [Tetracycline (TET), Tetracycline]	–	46.11	–
Penicillin [Penicillin (PEN)]	sensitive	43.06	–
